The results in this text go back to patent US6503935B1, “Imidazoles and related compounds as α1A agonists” (Abbott Laboratories, priority 1998, dated 2003).

The target in test [1] is T1, α1d (rat receptor expressed in mouse fibroblasts) (Rattus norvegicus, UniProt P23944).
T1 construct: expressed in transfected cells; host or cells: mouse fibroblasts
T1 sequence (P23944 1-561): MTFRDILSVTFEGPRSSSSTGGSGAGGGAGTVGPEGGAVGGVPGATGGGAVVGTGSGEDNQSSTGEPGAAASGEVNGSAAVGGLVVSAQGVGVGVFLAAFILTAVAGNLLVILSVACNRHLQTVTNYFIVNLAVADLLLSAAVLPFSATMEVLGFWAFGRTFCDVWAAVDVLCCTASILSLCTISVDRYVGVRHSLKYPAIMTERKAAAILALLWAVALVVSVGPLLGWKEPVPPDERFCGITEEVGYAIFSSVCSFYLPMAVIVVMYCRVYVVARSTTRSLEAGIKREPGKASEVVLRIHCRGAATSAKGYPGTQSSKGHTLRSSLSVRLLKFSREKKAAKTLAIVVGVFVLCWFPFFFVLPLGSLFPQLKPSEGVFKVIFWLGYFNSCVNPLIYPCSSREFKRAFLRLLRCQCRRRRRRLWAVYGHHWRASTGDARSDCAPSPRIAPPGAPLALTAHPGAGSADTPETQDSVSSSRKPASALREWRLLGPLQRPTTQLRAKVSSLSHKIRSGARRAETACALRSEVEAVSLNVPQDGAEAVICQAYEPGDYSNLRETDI
Briefly: Radioligand binding with [3H]-prazosin, α1d. The conditions noted are these: rat receptor expressed in mouse fibroblasts, [3H]-prazosin. Summed up:
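Radioligand binding with [3H]-prazosin: α1A from rat submaxillary gland; α1b hamster receptor and α1d rat receptor, each expressed in mouse fibroblasts.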

For test [2], the target named is T2, α1A (rabbit urethra) (Oryctolagus cuniculus, UniProt O02824).
T2 construct: tested for α1A functional activity using rabbit urethra; from tissue; host or cells: rabbit urethra
T2 sequence (O02824 1-466): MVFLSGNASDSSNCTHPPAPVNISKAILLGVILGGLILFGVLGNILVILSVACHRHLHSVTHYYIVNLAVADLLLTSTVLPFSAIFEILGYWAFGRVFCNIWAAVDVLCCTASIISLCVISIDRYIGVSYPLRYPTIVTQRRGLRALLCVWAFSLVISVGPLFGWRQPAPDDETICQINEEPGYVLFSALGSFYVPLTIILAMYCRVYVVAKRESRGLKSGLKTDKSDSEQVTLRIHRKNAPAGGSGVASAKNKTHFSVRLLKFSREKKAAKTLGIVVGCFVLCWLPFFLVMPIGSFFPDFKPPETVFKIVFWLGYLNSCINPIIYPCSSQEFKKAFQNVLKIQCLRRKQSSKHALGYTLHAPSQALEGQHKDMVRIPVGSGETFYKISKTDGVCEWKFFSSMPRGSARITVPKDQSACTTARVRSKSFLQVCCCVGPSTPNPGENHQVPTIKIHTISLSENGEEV
Briefly: Agonist contraction of smooth muscle tissue, rabbit urethra. It is filed as cell-based. The conditions noted are these: rabbit urethra; read-out: Agonist Tissue Response (pD2) α1A (rab ureth) (converted). Here is the method:
Most of the compounds were tested for α1A functional activity using rabbit urethra as follows. Female New Zealand white rabbits (2.0-3.5 Kg) were sedated with CO2 and decapitated. […] Subsequent experimental conditions were as described above for the other tissues. Agonist concentration response curves were cumulative except for the vas deferens assay in which the transient response made such measurements impractical.

Test [3] deals with Anesthetized Dogs. Briefly: Intraurethral pressure (IUP) in anesthetized dogs. The conditions noted are these: for Mean Selectivity Ratio MAP ED20/IUP ED5 / Mean IUP ED5 / ED (5 mmHg IUP increase): anesthetized female dogs; for Mean Selectivity Ratio MAP ED20/IUP ED5 / ED (5 mmHg IUP increase): iv; for Mean IUP ED5 / ED (5 mmHg IUP increase): iv dose causing a maximum increase in IUP of 5 mm Hg; for Mean IUP ED5: maleate; for ED (5 mmHg IUP increase): Canis lupus familiaris, read-out: Mean IUP ED5. Type of test: in vivo, dog. An excerpt:
In vivo Functional Assays-Assessment of Intrurethral Pressure (IUP) and Mean Arterial Pressure (MAP) in Anesthetized Dogs
Female dogs (Marshall Farms, North Rose, N.Y.) greater that 2 years of age and weighing between 12 and 15 kg were used in these studies. At least 2 weeks prior to any agonist dosing, dogs were instrumented for the chronic measurement of arterial blood pressure by implanting a telemetry transducer/transmitter (TA11PA-C40, Data Sciences International, St. Paul, Minn.) into a carotid artery.
On the test day, dogs fasted since the previous afternoon were pre-anesthetized with thiopental sodium 15 mg/kg i.v. (Pentothal™, Abbott) and intubated. Anesthesia was maintained by allowing the dog to spontaneously breathe a mixture of isoflurane (2.5 to 3 volume %) and oxygen delivered by a Narkomed Standard anesthesia system (North American Drager, Telford, Pa.). An Abbocath-T™ i.v. catheter (18-G, Abbott) was inserted into the cephalic vein for the administration of agonists. A telemetry receiver (RA1310, DataSciences) was placed under the head of each dog and was interfaced to a computerized data acquisition system (Modular Instruments Inc.(MI2), Malvern, Pa.) which allowed for the continuous calibrated recording of arterial blood pressure which was electronically filtered to determine its mean value (MAP).
Dogs with chronic telemetry implants anesthetized as described above were placed in dorsal recumbency and a balloon catheter was inserted into the urethral orifice and advanced approximately 15 cm until the tip was well inside the bladder. The balloon was then inflated with 1 ml of room air and the catheter slowly withdrawn until resistance (corresponding to the bladder neck) was evident. The balloon was then deflated and the catheter withdrawn an additional 2 cm. The balloon was then reinflated and its catheter port connected to a Gould Statham P23Dd pressure transducer interfaced to a computerized data acquisition system (Modular Instruments, Inc., Malvern, Pa.) for the measurement of intraurethral pressure. Increasing iv doses of test agonists were administered and the maximum effect of each dose on IUP was recorded. The effect of each dose was allowed to return to baseline before the next dose was given.
From the resulting dose response curve, an ED5 value, for the dose causing a maximum increase in IUP of 5 mm Hg, could be estimated. An ED20 value for the dose causing a maximum increase in MAP of 20 mm Hg could also be estimated. A selectivity ratio of MAP ED20 vs. IUP ED5 was calculated.

Setting [4] is: read-out: Radioligand Binding Ki α1d (Rat).
[5] abbreviates: Radioligand Binding Ki α1d (Rat).

Structures can show the parent of a compound that is named as a salt. Where two headings read alike, the source gives them in different places.

As to `CCS(=O)(=O)Nc1cccc2c1CCCC2c1c[nH]cn1.O=C(O)/C=C\C(=O)O` (single isomer, unassigned; (+)) [Example 33, (+)-N-[5-(1H-imidazol-4-yl)-5,6,7,8-tetrahydro-1-naphthalenyl]ethanesulfonamide, maleate], the Ki (commonly the dissociation constant of the complex between target and ligand, obtained from inhibition or displacement) in test [1] (setting [4]) is 1080 nM. Moreover, the EC50 in test [2] was 170 nM. Also, in test [3], the “Mean Selectivity Ratio MAP ED20/IUP ED5” value came out at 3.3 and the “Mean IUP ED5” value is 10.5 nmol/kg.
For the compound `CCS(=O)(=O)Nc1cccc2c1CCCC2c1c[nH]cn1.O=C(O)/C=C\C(=O)O` (single isomer, unassigned; (-)) [Example 34, (−)-N-[5-(1H-imidazol-4-yl)-5,6,7,8-tetrahydro-1-naphthalenyl]ethanesulfonamide, maleate], the inhibition constant (Ki) in test [1] (setting [4]) was determined as 842 nM. The EC50 in test [2] was 28200 nM. In test [3], the “Mean IUP ED5” value is reported as >1000 nmol/kg.
Regarding `CCS(=O)(=O)Nc1cccc2c1CCCC2c1c[nH]cn1.O=C(O)/C=C\C(=O)O` (stereo not shown) [Example 12, N-[5-(1H-imidazol-4-yl)-5,6,7,8-tetrahydro-1-naphthalenyl]ethanesulfonamide, maleate], the Ki in test [1] (setting [4]) was found to be 1670 nM. In addition, the EC50 in test [2] was 631 nM. Besides, in test [3], the ED (5 mmHg IUP increase) stood at 0.0107 µmol/kg and the “Mean Selectivity Ratio MAP ED20/IUP ED5” value is 7.6.
As for `CN(c1cccc2c1CCCC2c1c[nH]cn1)S(C)(=O)=O` (stereo not shown) [Example 15, N-[5,6,7,8-tetrahydro-5-(1H-imidazol-4-yl)-1-naphthalenyl]-N-methylmethanesulfonmamide, maleate], in test [1] (setting [4]), the Ki was determined as 701 nM. Further, the EC50 in test [2] is 692 nM. The “Mean Selectivity Ratio MAP ED20/IUP ED5” value in test [3] is on record as 2.5.
On the same counts, the results for `O=C(Nc1cccc2c1CCCC2c1c[nH]cn1)C(F)(F)F` (stereo not shown) [Example 17, 2,2,2-trifluoro-N-[5-(1H-imidazol-4-yl)-5,6,7,8-tetahydro-1-naphthalenyl]acetamide, maleate] are 3300 nM, 525 nM and 1.1.
Compound `CS(=O)(=O)Nc1cccc(Cc2c[nH]cn2)c1.O=C(O)/C=C\C(=O)O` [Example 21, N-[3-(1H-imidazol-4-ylmethyl)phenyl]methanesulfonamide, maleate] yielded a Ki in test [1] (setting [5]) of 212 nM. Moreover, the EC50 in test [2] was 1860 nM.
Regarding `COc1ccc(NS(C)(=O)=O)c2c1C(c1c[nH]cn1)CCC2` (stereo not shown) [Example 26, N-[5,6,7,8-tetrahydro-(1H-imidazol-4-yl)-4-methoxyy-1-naphthalenyl]methanesulfonamide, maleate], the EC50 in test [2] was 15500 nM. In test [3], the “Mean Selectivity Ratio MAP ED20/IUP ED5” value is reported as 2.6.
With `Cc1c(Cc2c[nH]cn2)cccc1NS(C)(=O)=O.O=C(O)/C=C\C(=O)O` [Example 28, N-[3-(1H-imidazol-4-ylmethyl)-2-methylphenyl]methanesulfonamide, maleate], the Ki in test [1] (setting [5]) amounted to 815 nM. The EC50 in test [2] was 5620 nM. Also, the “Mean Selectivity Ratio MAP ED20/IUP ED5” value in test [3] is on record as 2.1.
The compound `CCS(=O)(=O)Nc1cccc(Cc2c[nH]cn2)c1C.O=C(O)/C=C\C(=O)O` [Example 29, N-[3-(1H-imidazol-4-ylmethyl)-2-methylphenyl]ethanesulfonamide, maleate] showed an inhibition constant Ki in test [1] (setting [5]) of 678 nM. Also, the “Mean Selectivity Ratio MAP ED20/IUP ED5” value in test [3] was found to be 5.6. In addition, the “selectivity for increasing intraurethral pressure over arterial pressure as compared to N-(3-(1H-imidazol-4-ylmethyl)-2-methylphenyl]methanesulfonamide)” value in test [3] (in vivo, dogs) is > 3 times.
In the case of `CC(c1cccc(NS(C)(=O)=O)c1)c1c[nH]cn1.O=C(O)/C=C\C(=O)O` (stereo not shown) [Example 31, N-[3-[1-(1H-imidazol-4-yl)ethyl]phenyl]methanesulfonamide, maleate], the affinity in test [1] (setting [5]), expressed as Ki, was 685 nM. Moreover, in test [2], the EC50 was 4170 nM. The “Mean Selectivity Ratio MAP ED20/IUP ED5” value in test [3] came to 3.4.
As for `CS(=O)(=O)Nc1ccc(F)c2c1CCCC2c1c[nH]cn1.O=C(O)/C=C\C(=O)O` (stereo not shown) [Example 44, N-[4-fluoro-5-(1H-imidazol-4-yl)-5,6,7,8-tetrahydro-1-naphthalenyl]methanesulfonamide, maleate], in test [1] (setting [4]), the Ki was 3050 nM. In test [2], the EC50 was 4900 nM. Further, in test [3], the ED (5 mmHg IUP increase) came out at 0.844 µmol/kg and the “Mean Selectivity Ratio MAP ED20/IUP ED5” value is 1.0.
In test [1] (setting [5]), `C=C(c1cccc(NS(=O)(=O)CC)c1)c1c[nH]cn1` [Example 45, N-{3-[1-(1H-imidazol-4-yl)vinyl]phenyly}ethanesulfonamide, maleate] had a Ki of 971 nM. Moreover, the EC50 in test [2] was 2000 nM. In test [3], the “Mean Selectivity Ratio MAP ED20/IUP ED5” value amounted to 2.6.
